# Measured values: patent US20240116900A1, “NEW CRYSTALLINE FORMS OF A KRAS G12C INHIBITOR COMPOUND” (NOVARTIS AG, priority 2020, published 2024)
# Where two headings read alike, the source gives them in different places.
# Experiments:
# KRAS G12C [1] = biological target: T1, KRAS G12C (Homo sapiens, UniProt P01116, G12C); assay: Cellular assay: downstream effector protein recruitment; assay type: cell-based; settings: cellular assays
# [2] = test system: KRAS G12C mutant xenograft and patient-derived xenograft tumor models; assay: Xenograft and patient-derived xenograft tumor models; assay type: in vivo; settings: mice
# [3] = test system: KR ASG12C mutant cell lines; assay: Cellular assays: KRAS-driven oncogenic signaling and proliferation; assay type: cell-based; settings: specifically in KRAS G12C mutant cell lines
# KRAS G12C [4] = biological target: T1, KRAS G12C; assay: Covalent inhibition / binding of KRAS G12C; settings: binds KRAS G12C and traps it into inactive GDP-bound state
# [5] = Granulation simulation experiments (XRPD after wetting and grinding); assay type: physicochemical
# Method: Granulating solvent was added drop wise to the solid form being tested until the solid form was wetted sufficiently. The wet substance was ground manually. The solid form was evaluated for degree of crystallinity or form change by e.g., XRPD analysis and/or DSC analysis. Granulating solvents were water, pH 4.7, 50 mM acetate buffer, and pH 6.8, 50 mM phosphate buffer.
# [6] = XRPD upon variation of humidity and temperature; assay type: physicochemical
# [7] = Water sorption and desorption isotherms by Dynamic Vapor Sorption (DVS); assay type: physicochemical; settings: for hygroscopicity / Change In Mass (%) - ref, Desorption / Change In Mass (%) - ref, Sorption: 25° C.; for hygroscopicity: 0 to 95% RH; for Change In Mass (%) - ref, Desorption / Change In Mass (%) - ref, Sorption: 40-0-95-0-40 (% RH)
# Method: Water sorption and desorption isotherms were recorded at 25° C., 40° C. or 60° C. using a Dynamic Vapor Sorption (DVS) instrument as follows. The cycle used was as follows: 40-0-95-0-40 (% RH).
# [8] = Bulk stability studies (XRPD, HPLC degradation products); settings: 1 week 50° C., 75% RH
# Method: The stability of the crystalline form was investigated as follows. Bulk samples were analysed, e.g. by HPLC and/or XRPD after being exposed to various temperatures and residual humidities.
SMILES,"Change In Mass (%) - ref, Desorption ([7]; Cycle 1, target RH 0.0%)","Change In Mass (%) - ref, Sorption ([7]; Cycle 1, target RH 0.0%)","Change In Mass (%) - ref, Desorption ([7]; Cycle 1, target RH 10.0%)","Change In Mass (%) - ref, Sorption ([7]; Cycle 1, target RH 10.0%)","Change In Mass (%) - ref, Desorption ([7]; Cycle 1, target RH 20.0%)","Change In Mass (%) - ref, Sorption ([7]; Cycle 1, target RH 20.0%)","Change In Mass (%) - ref, Desorption ([7]; Cycle 1, target RH 30.0%)","Change In Mass (%) - ref, Sorption ([7]; Cycle 1, target RH 30.0%)","Change In Mass (%) - ref, Desorption ([7]; Cycle 1, target RH 40.0%)","Change In Mass (%) - ref, Sorption ([7]; Cycle 1, target RH 40.0%)","Change In Mass (%) - ref, Sorption ([7]; Cycle 1, target RH 50.0%)","Change In Mass (%) - ref, Sorption ([7]; Cycle 1, target RH 60.0%)","Change In Mass (%) - ref, Sorption ([7]; Cycle 1, target RH 70.0%)","Change In Mass (%) - ref, Sorption ([7]; Cycle 1, target RH 80.0%)","Change In Mass (%) - ref, Sorption ([7]; Cycle 1, target RH 90.0%)","Change In Mass (%) - ref, Sorption ([7]; Cycle 1, target RH […])","Change In Mass (%) - ref, Desorption ([7]; Cycle 2, target RH 0.0%)","Change In Mass (%) - ref, Sorption ([7]; Cycle 2, target RH 0.0%)","Change In Mass (%) - ref, Desorption ([7]; Cycle 2, target RH 10.0%)","Change In Mass (%) - ref, Sorption ([7]; Cycle 2, target RH 10.0%)",further results
"C=CC(=O)N1CC2(CC(n3nc(-c4ccc5c(cnn5C)c4)c(-c4c(Cl)c(C)cc5[nH]ncc45)c3C)C2)C1 (single isomer, unassigned) [Compound A, 1-{6-[(4M)-4-(5-chloro-6-methyl-1H-indazol-4-yl)-5-methyl-3-(1-methyl-1H-indazol-5-yl)-1H-pyrazol-1-yl]-2-azaspiro[3.3]heptan-2-yl}prop-2-en-1-one]",,,,,,,,,,,,,,,,,,,,,downstream effector protein recruitment to KRAS G12C (KRAS G12C [1]): selectively inhibited; antitumor activity [2]: dose-dependent antitumor activity; expression of the MAPK pathway target gene dual-specific phosphatase 6 (DUPS6) [2]: reduction of expression; KRAS-driven oncogenic signaling and proliferation [3]: inhibited; inhibition of KRAS G12C (KRAS G12C [4]): potent and selective covalent inhibitor
C=CC(=O)N1CC2(CC(n3nc(-c4ccc5c(cnn5C)c4)c(-c4c(Cl)c(C)cc5[nH]ncc45)c3C)C2)C1 [Hydrate HA],0.002%,0.002%,2.638%,2.390%,3.008%,2.782%,3.381%,3.184%,3.838%,3.660%,4.295%,5.234%,6.244%,7.007%,7.633%,7.973%,0.000%,0.000%,2.659%,2.388%,"XRPD after granulation simulation ([5]; solvent for granulation: Water): no form change; form change after equilibration (XRPD) (50° C. and 70° C.): formation of several solvates in cyclohexane, ethanol, isopropanol or 1,2-propanediol; form change on heating ([6]; at 80° C.): converts into an anhydrous form, namely Modification A; XRPD pattern on heating ([6]; heated at ambient relative humidity from 25° C. to 65° C.): remains unchanged; water content corresponding to hosted water molecules ([7]; 2.5 molecules of water): 7.9%; hygroscopicity [7]: hygroscopic; water absorbed ([7]; 80% RH at 25° C.): up to 7.0%; Change In Mass (%) - ref, Desorption ([7]; Cycle 2, target RH 20.0%): 3.102%; Change In Mass (%) - ref, Sorption ([7]; Cycle 2, target RH 20.0%): 2.773%; Change In Mass (%) - ref, Desorption ([7]; Cycle 2, target RH 30.0%): 3.573%; Change In Mass (%) - ref, Sorption ([7]; Cycle 2, target RH 30.0%): 3.163%; Change In Mass (%) - ref, Desorption ([7]; Cycle 2, target RH 40.0%): 4.126%; Change In Mass (%) - ref, Sorption ([7]; Cycle 2, target RH 40.0%): 3.624%; Change In Mass (%) - ref, Desorption ([7]; Cycle 2, target RH 50.0%): 5.062%; Change In Mass (%) - ref, Desorption ([7]; Cycle 2, target RH 60.0%): 6.040%; Change In Mass (%) - ref, Desorption ([7]; Cycle 2, target RH 70.0%): 6.816%; Change In Mass (%) - ref, Desorption ([7]; Cycle 2, target RH 80.0%): 7.346%; Change In Mass (%) - ref, Desorption ([7]; Cycle 2, target RH 90.0%): 7.766%; Change In Mass (%) - ref, Desorption ([7]; Cycle 2, target RH […]): 7.973%; molecules of water hosted ([7]; depending on the relative humidity): up to 2.5 molecules"
C=CC(=O)N1CC2(CC(n3nc(-c4ccc5c(cnn5C)c4)c(-c4c(Cl)c(C)cc5[nH]ncc45)c3C)C2)C1.O.O.O.O [Hydrate HB],0.00%,0.00%,1.87%,0.56%,2.62%,2.03%,12.26%,2.51%,12.73%,2.81%,3.17%,3.69%,5.09%,10.34%,12.94%,13.35%,−0.09%,−0.09%,1.74%,0.47%,"% Degradation Products, as measured by HPLC ([8]; area-% products): 3.97%; form change at 0% RH ([6]; 0% RH): completely dehydrates; form change on heating ([6]; further heating to 70° C. and above): converts to an anhydrous form, Modification B; XRPD pattern on heating ([6]; heated from 25° C. to 40° C.): changes to hydrate HC; maximum water uptake ([7]; 25° C. and up to 95% RH): about 13%; Change In Mass (%) - ref, Desorption ([7]; Cycle 2, target RH 20.0%): 2.37%; Change In Mass (%) - ref, Sorption ([7]; Cycle 2, target RH 20.0%): 1.88%; Change In Mass (%) - ref, Desorption ([7]; Cycle 2, target RH 30.0%): 11.38%; Change In Mass (%) - ref, Sorption ([7]; Cycle 2, target RH 30.0%): 2.32%; Change In Mass (%) - ref, Desorption ([7]; Cycle 2, target RH 40.0%): 11.87%; Change In Mass (%) - ref, Sorption ([7]; Cycle 2, target RH 40.0%): 2.69%; Change In Mass (%) - ref, Desorption ([7]; Cycle 2, target RH 50.0%): 12.24%; Change In Mass (%) - ref, Desorption ([7]; Cycle 2, target RH 60.0%): 12.53%; Change In Mass (%) - ref, Desorption ([7]; Cycle 2, target RH 70.0%): 12.78%; Change In Mass (%) - ref, Desorption ([7]; Cycle 2, target RH 80.0%): 13.02%; Change In Mass (%) - ref, Desorption ([7]; Cycle 2, target RH 90.0%): 13.24%; Change In Mass (%) - ref, Desorption ([7]; Cycle 2, target RH […]): 13.35%"
C=CC(=O)N1CC2(CC(n3nc(-c4ccc5c(cnn5C)c4)c(-c4c(Cl)c(C)cc5[nH]ncc45)c3C)C2)C1 [Modification C],−0.0018%,−0.0018%,0.0522%,0.0639%,0.0984%,0.1010%,0.1282%,0.1365%,0.1658%,0.1764%,0.2099%,0.2719%,0.2954%,0.3628%,0.4475%,0.5450%,−0.0143%,−0.0143%,0.0532%,0.0434%,"form change after granulation simulation ([5]; aqueous media as the solvent for granulation): no form change; form change after equilibration (in ethanol, and methanol): converts to Hydrate HA; form change after equilibration (in isopropanol): converts into a mixture of HA and the isopropanol solvate; XRPD after bulk storage [8]: No change; hygroscopicity [7]: non hygroscopic; Change In Mass (%) - ref, Desorption ([7]; Cycle 2, target RH 20.0%): 0.1019%; Change In Mass (%) - ref, Sorption ([7]; Cycle 2, target RH 20.0%): 0.0893%; Change In Mass (%) - ref, Desorption ([7]; Cycle 2, target RH 30.0%): 0.1500%; Change In Mass (%) - ref, Desorption ([7]; Cycle 2, target RH 40.0%): 0.2014%; Change In Mass (%) - ref, Sorption ([7]; Cycle 2, target RH 40.0%): 0.1725%; Change In Mass (%) - ref, Desorption ([7]; Cycle 2, target RH 50.0%): 0.2678%; Change In Mass (%) - ref, Desorption ([7]; Cycle 2, target RH 60.0%): 0.3212%; Change In Mass (%) - ref, Desorption ([7]; Cycle 2, target RH 70.0%): 0.3789%; Change In Mass (%) - ref, Desorption ([7]; Cycle 2, target RH 80.0%): 0.4299%; Change In Mass (%) - ref, Desorption ([7]; Cycle 2, target RH 90.0%): 0.5046%; Change In Mass (%) - ref, Desorption ([7]; Cycle 2, target RH […]): 0.5450%"
